From PMC5970182, “Enabling STD-NMR fragment screening using stabilized native GPCR: A case study of adenosine receptor” (Scientific Reports, 2018)

Columns and labels:
[1] = system: A2AR StaR; set-up: method as in PMID 18664584, PMID 20624408; conditions: cited from earlier work
[2] = system: Non-transfected HEK293 cells; assay: cAMP assay in non-transfected HEK293 cells (negative control); format: cell-based, human; conditions: high concentrations of CGS-21680; probably endogenous A2AR
[3] = target: T1, A2AR (Homo sapiens, UniProt P29274); assay: STD-NMR binding and competition on purified native A2AR
T1 construct: Full length and wild type A2AR was expressed in yeast (Pichia pastoris) and Sf9; Strep-tag II (N); 8xHis (N); made in house; host or cells: Sf9 insect cells (baculovirus)

[4] = target: the molecule itself; assay: SEC-MALS; peak 1 of the gel filtration of affinity-purified A2AR; Phenomenex Yarra SEC 3000-3 column, 20 °C, 0.3 ml/min; DDM/CHS micelles; dn/dc protein 0.185 ml/g, detergent 0.1618 ml/g

In the case of `CCNC(=O)[C@H]1O[C@@H](n2cnc3c(N)nc(NCCc4ccc(CCC(=O)O)cc4)nc32)[C@H](O)[C@@H]1O` [CGS-21680], the “Binding of agonists to StaR preparation in comparison to the wild type protein” value [1] is listed as “not able to bind correctly” and the cAMP production [2] is listed as “small increase in cAMP production”.

For `CCNC(=O)[C@H]1O[C@@H](n2cnc3c(N)ncnc32)[C@H](O)[C@@H]1O` [NECA], the “Binding of agonists to StaR preparation in comparison to the wild type protein” value [1] is listed as “not able to bind correctly”.

In the case of `Cn1c(=O)c2c(ncn2C)n(C)c1=O` [caffeine, reference compound], the STD binding signal [3] is reported as “bound to A2AR” and the “STD binding signal in competition with ZM241385” value [3] is reported as “binding signal of caffeine disappears”.

B1: Wild type, full length human adenosine A2A receptor (receptor, UniProt P29274 1-412, looked up)
chain: MPIMGSSVYITVELAIAVLAILGNVLVCWAVWLNSNLQNVTNYFVVSLAAADIAVGVLAIPFAITISTGFCAACHGCLFIACFVLVLTQSSIFSLLAIAIDRYIAIRIPLRYNGLVTGTRAKGIIAICWVLSFAIGLTPMLGWNNCGQPKEGKNHSQGCGEGQVACLFEDVVPMNYMVYFNFFACVLVPLLLMLGVYLRIFLAARRQLKQMESQPLPGERARSTLQKEVHAAKSLAIIVGLFALCWLPLHIINCFTFFCPDCSHAPLWLMYLAIVLSHTNSVVNPFIYAYRIREFRQTFRKIIRSHVLRQQEPFKAAGTSARVLAAHGSDGEQVSLRLNGHPPGVWANGSAPHPERRPNGYALGLVSGGSAQESQGNTGLPDVELLSHELKGVCPEPPGLDDPLAQDGAGVS
modifications: N-glycans attached (sites not given)
notes: adenosine A2A receptor, human, full length, wild type; Peak 2 of the gel filtration also holds a faster band consistent with a degradation product; also called native A2AR
For B1, the “stoichiometry N” value [4] was ~5.
